# Reference: patent US4605674A, “Substituted acetophenones and compositions containing them” (Hoffmann-La Roche Inc., priority 1979, dated 1986)
# Where two headings read alike, the source gives them in different places.
# Tests used:
# rhinovirus HGP = test: Inhibition of viral cytopathogenic effect (c.p.e.) of rhinovirus HGP in HeLa cells; type: cell-based, human rhinoviruses; details: Enterovirus, 48 h, read-out: IC50 against rhinovirus HGP (concentration inhibiting the viral c.p.e. by 50%)
# Experimental: A suspension of HeLa cells (6×10^4) was mixed with rhinovirus HGP (3×10^3 plaque forming units, PFU) and was plated in a microtest plate containing the compounds to be tested serially diluted. The cells were then cultured with Eagle's minimum essential medium containing 2% calf serum, 1% tryptose phosphate broth, 100 μg/ml of streptomycin sulfate and 20 unit/ml of penicillin G. Viral c.p.e. (cytopathogenic effect) was observed by a microscope after 2 days culture at 33° C.
# The antiviral activity of the tested compounds is expressed by the concentration inhibiting the viral c.p.e. by 50% when compared to the control culture (IC50).
# in vivo = details: mouse, DDY mice, single dose
# Experimental: ^(1) DDY mice weighing 15-20 g were treated with a single dose of the
# compound. Survivors were recorded on day 21.
# ^(2) Compounds were dissolved in dimethylsulfoxide.
# ^(3) Compounds were suspended with solution of 0.5% carboxymethyl
# [1] = ip, i.p., dissolved in dimethylsulfoxide, day 21, read-out: LD50 i.p.
# [2] = po, p.o., suspended in 0.5% carboxymethyl cellulose, day 21, read-out: LD50 p.o.
# [3] = HeLa cells, 2 days culture at 33° C.
Structure (SMILES),IC50 (rhinovirus HGP; HeLa),LD50 at 504 h (in vivo; [1]),LD50 at 504 h (in vivo; [2]),IC50 (rhinovirus HGP; [3])
COc1cc(O)c(C(=O)/C=C/c2ccc(C)cc2)c(OC)c1,0.01 µg/mL,> 1000 mg/kg,> 5000 mg/kg,
CCOc1ccc(/C=C/C(=O)c2c(O)cc(OCC)cc2OCC)cc1,0.25 µg/mL,> 1000 mg/kg,> 3000 mg/kg,
COc1cc(O)c(C(=O)/C=C/c2ccc(N(C)C)cc2)c(OC)c1,0.02 to 0.06 µg/mL,> 1000 mg/kg,> 5000 mg/kg,
"COc1cc(O)c(C(=O)/C=C/c2ccc(OC)c(O)c2)c(OC)c1 [2',3-dihydroxy-4,4',6'-trimethoxychalcone]",0.1 to 0.3 µg/mL,> 500 mg/kg,> 1000 mg/kg,
"CCOc1cc(O)c(C(=O)C=Cc2ccc(C)o2)c(OCC)c1 [2',4'-diethoxy-6'-hydroxy-3-(5-methyl-2-furyl)-acrylophenone]",0.04 to 0.12 µg/mL,> 500 mg/kg,> 1000 mg/kg,
"CCOc1cc(O)c(C(=O)/C=C/c2ccc(OC)cc2)c(OCC)c1 [2',4'-diethoxy-6'-hydroxy-4-methoxychalcone]",0.03 to 0.1 µg/mL,> 1000 mg/kg,> 2000 mg/kg,
"CCC(=O)Oc1cc(OC)cc(OC)c1C(=O)C=Cc1ccc2c(c1)OCO2 [2',4'-dimethoxy-3,4-(methylenedioxy)-6'-(propionyloxy)-chalcone]",0.1 µg/mL,> 500 mg/kg,> 1000 mg/kg,
"CCC(=O)Oc1cc(OC)cc(OC)c1C(=O)C=Cc1cccn1C [2',4'-dimethoxy-3-(1-methylpyrrol-2-yl)-6'-(propionyloxy)-acrylophenone]",0.3 µg/mL,> 500 mg/kg,> 5000 mg/kg,
"CCC(=O)Oc1cc(OC)cc(OC)c1C(=O)C=Cc1ccc(C)o1 [2',4'-dimethoxy-3-(5-methyl-2-furyl)-6'-(propionyloxy)-acrylophenone]",0.03 to 0.1 µg/mL,> 500 mg/kg,> 2000 mg/kg,
"CCC(=O)Oc1cc(OC)cc(OC)c1C(=O)/C=C/c1ccc(SC)cc1 [2',4'-dimethoxy-4-(methylthio)-6'-(propionyloxy)-chalcone]",0.03 to 0.1 µg/mL,> 1000 mg/kg,> 5000 mg/kg,
"CCC(=O)Oc1cc(OC)cc(OC)c1C(=O)/C=C/c1ccc(C)cc1 [2',4'-dimethoxy-4-methyl-6'-(propionyloxy)-chalcone]",0.03 µg/mL,> 1000 mg/kg,> 5000 mg/kg,
"CCC(=O)Oc1cc(OC)cc(OC)c1C(=O)C=Cc1cccs1 [2',4'-dimethoxy-6'-(propionyloxy)-3-(2-thienyl)-acrylophenone]",0.1 to 0.3 µg/mL,> 1000 mg/kg,> 5000 mg/kg,
"CCCOc1ccc(/C=C/C(=O)c2c(OC)cc(OC)cc2OC(=O)CC)cc1 [2',4'-dimethoxy-6'-(propionyloxy)-4-propoxychalcone]",0.1 to 0.3 µg/mL,> 1000 mg/kg,> 5000 mg/kg,
"CCC(=O)Oc1cc(OC)cc(OC)c1C(=O)/C=C/c1ccccc1 [2',4'-dimethoxy-6'-(propionyloxy)-chalcone]",0.3 to 1 µg/mL,> 1000 mg/kg,> 5000 mg/kg,
"CCOc1ccc(/C=C/C(=O)c2c(OCC)cc(OCC)cc2OC(=O)CC)cc1 [2',4,4'-triethoxy-6'-(propionyloxy)-chalcone]",0.1 to 0.3 µg/mL,> 1000 mg/kg,> 5000 mg/kg,
"COc1ccc(/C=C/C(=O)c2c(OC)cc(OC)cc2OC(=O)c2cccnc2)cc1 [2',4,4'-trimethoxy-6'-(nicotinoyloxy)chalcone]",0.01 to 0.025 µg/mL,> 500 mg/kg,> 4000 mg/kg,
"CCCCCCCCCCCCCCCCCC(=O)Oc1cc(OC)cc(OC)c1C(=O)/C=C/c1ccc(OC)cc1 [2',4,4'-trimethoxy-6'-(octadecanoyloxy)chalcone]",0.05 to 0.1 µg/mL,> 500 mg/kg,> 4000 mg/kg,
"COc1ccc(/C=C/C(=O)c2c(OC)cc(OC)cc2OC(=O)C(C)(C)C)cc1 [2',4,4'-trimethoxy-6'-(pivaloyloxy)-chalcone]",0.01 to 0.03 µg/mL,> 1000 mg/kg,> 5000 mg/kg,
"COc1ccc(/C=C/C(=O)c2c(OC)cc(OC)cc2OC(=O)c2cnccn2)cc1 [2',4,4'-trimethoxy-6'-(pyrazinylcarbonyloxy)-chalcone]",0.03 to 0.1 µg/mL,> 500 mg/kg,> 4000 mg/kg,

Structure (SMILES),IC50 (rhinovirus HGP; HeLa),LD50 at 504 h (in vivo; [1]),LD50 at 504 h (in vivo; [2]),IC50 (rhinovirus HGP; [3])
"CCOc1ccc(/C=C/C(=O)c2c(O)cc(OC)cc2OCC)cc1 [2',4-diethoxy-6'-hydroxy-4'-methoxychalcone]",0.1 µg/mL,> 500 mg/kg,> 5000 mg/kg,
"COc1cc(O)c(C(=O)/C=C/c2ccc(O)c(OC)c2)c(OC)c1 [2',4-dihydroxy-3,4',6'-trimethoxychalcone]",,,,0.3 to 1 µg/mL
"COc1cc(O)c(C(=O)/C=C/c2ccc(O)cc2)c(OC)c1 [2',4-dihydroxy-4',6'-dimethoxychalcone]",0.3 to 1 µg/mL,> 500 mg/kg,> 3200 mg/kg,
"COc1ccc(/C=C/C(=O)c2c(OC)cc(OC)cc2OC(=O)CCCC(=O)O)cc1 [2'-(4-carboxybutanoyloxy)-4,4',6'-trimethoxychalcone]",0.03 µg/mL,> 500 mg/kg,> 2000 mg/kg,
"COc1ccc(/C=C/C(=O)c2c(OC)cc(OC)cc2OC(=O)[C@H](C)N)cc1 [2'-(L-alanyloxy)-4,4',6'-trimethoxychalcone]",0.03 to 0.1 µg/mL,> 180 mg/kg,> 1000 mg/kg,
"CCOC(=O)Oc1cc(OC)cc(OC)c1C(=O)/C=C/c1ccc(OC)cc1 [2'-(ethoxycarbonyloxy)-4,4',6'-trimethoxychalcone]",0.04 µg/mL,> 500 mg/kg,> 4000 mg/kg,
"CCOc1cc(OC)cc(OC(=O)CC)c1C(=O)/C=C/c1ccc(OC)cc1 [2'-ethoxy-4,4'-dimethoxy-6'-(propionyloxy)-chalcone]",0.02 to 0.06 µg/mL,> 1000 mg/kg,> 5000 mg/kg,
CCOc1cc(OC)cc(O)c1C(=O)C=Cc1ccc(C)o1 [2'-ethoxy-6'-hydroxy-4'-methoxy-3-(5-methyl-2-furyl)-acrylophenone],0.04 µg/mL,> 500 mg/kg,> 1000 mg/kg,
"CCOc1cc(OC)cc(O)c1C(=O)/C=C/c1ccc(OC)cc1 [2'-ethoxy-6'-hydroxy-4,4'-dimethoxychalcone]",0.01 µg/mL,> 500 mg/kg,> 1000 mg/kg,
"COc1cc(O)c(C(=O)/C=C/c2cccc(OC)c2OC)c(OC)c1 [2'-hydroxy-2,3,4',6'-tetramethoxychalcone]",0.1 µg/mL,> 500 mg/kg,> 1000 mg/kg,
"COc1ccc(/C=C/C(=O)c2c(O)cc(OC)cc2OC)c(OC)c1 [2'-hydroxy-2,4,4',6'-tetramethoxychalcone]",0.1 µg/mL,> 500 mg/kg,> 1000 mg/kg,
"COc1cc(/C=C/C(=O)c2c(O)cc(OC)cc2OC)cc(OC)c1 [2'-hydroxy-3,4',5,6'-tetramethoxychalcone]",0.3 µg/mL,> 500 mg/kg,> 5000 mg/kg,
"COc1cccc(/C=C/C(=O)c2c(O)cc(OC)cc2OC)c1 [2'-hydroxy-3,4',6'-trimethoxychalcone]",0.1 µg/mL,> 500 mg/kg,> 1000 mg/kg,
"COc1cc(O)c(C(=O)/C=C/c2ccc(OC)c(OC)c2)c(OC)c1 [2'-hydroxy-3,4,4',6'-tetramethoxychalcone]",0.1 to 0.3 µg/mL,> 500 mg/kg,> 500 mg/kg,
"COc1cc(O)c(C(=O)C=Cc2ccc3c(c2)OCO3)c(OC)c1 [2'-hydroxy-4',6'-dimethoxy-3,4-(methylenedioxy)-chalcone]",0.02 µg/mL,> 1000 mg/kg,> 5000 mg/kg,
"COc1cc(O)c(C(=O)C=Cc2cccnc2)c(OC)c1 [2'-hydroxy-4',6'-dimethoxy-3-(3-pyridyl)-acrylophenone]",,,,0.6 µg/mL
"CCN(CC)c1ccc(/C=C/C(=O)c2c(O)cc(OC)cc2OC)cc1 [4-(diethylamino)-2'-hydroxy-4',6'-dimethoxychalcone]",,,,0.6 to 2 µg/mL
"COc1cc(O)c(C(=O)/C=C/c2ccc(N)cc2)c(OC)c1 [4-amino-2'-hydroxy-4',6'-dimethoxychalcone]",,,,0.03 to 0.1 µg/mL
